From ChEMBL document CHEMBL5634137, “2,4-Diacetylphloroglucinol (DAPG) derivatives rapidly eradicate methicillin-resistant staphylococcus aureus without resistance development by disrupting membrane” (Eur J Med Chem, 2023)
Converted amounts (≈) assume the structure as drawn.

Key:
Staphylococcus aureus [1] = assay: Antibacterial activity against methicillin-resistant Staphylococcus aureus ATCC 4330 assessed as inhibition of bacterial growth incubated for 24 hrs by broth dilution method; type: functional
Staphylococcus aureus [2] = assay: Antibacterial activity against methicillin-resistant Staphylococcus aureus ATCC 3392 assessed as inhibition of bacterial growth incubated for 24 hrs by broth dilution method; type: functional
Staphylococcus aureus [3] = assay: Selectivity index, ratio of MBC for bactericidal against methicillin-resistant Staphylococcus aureus ATCC 4330 to MIC for antibacterial activity against methicillin-resistant Staphylococcus aureus ATCC 4330; type: functional
Escherichia coli = assay: Antibacterial activity against Escherichia coli ATCC 11775 assessed as inhibition of bacterial growth incubated for 24 hrs by broth dilution method; type: functional
Staphylococcus aureus [4] = assay: Bactericidal against methicillin-resistant Staphylococcus aureus ATCC 4330 assessed as inhibition of bacterial growth incubated for 24 hrs by broth dilution method; type: functional
Staphylococcus aureus [5] = assay: Bactericidal activity against methicillin-resistant Staphylococcus aureus ATCC 3392 assessed as inhibition of bacterial growth incubated for 24 hrs by broth dilution method; type: functional
Klebsiella pneumoniae = assay: Antibacterial activity against Klebsiella pneumoniae […] assessed as inhibition of bacterial growth incubated for 24 hrs by broth dilution method; type: functional
[6] = Cytotoxicity against human L02 cells assessed as survival rate incubated for 24 hrs by MTT assay; type: toxicity, cell-based; set-up: concentration or dose not given beside the values; conditions: read-out: Survival
Staphylococcus aureus [7] = assay: Selectivity index, ratio of MBC for bactericidal against methicillin-resistant Staphylococcus aureus ATCC 3392 to MIC for antibacterial activity against methicillin-resistant Staphylococcus aureus ATCC 3392; type: functional
[8] = Cytotoxicity against mouse RAW264.7 cells assessed as survival rate incubated for 24 hrs by MTT assay; type: toxicity, cell-based; set-up: concentration or dose not given beside the values; conditions: read-out: Survival
Staphylococcus aureus [9] = assay: Antibacterial activity against Methicillin-resistant Staphylococcus aureus USA300 assessed as inhibition of bacterial growth incubated for 24 hrs by broth dilution method; type: functional
Pseudomonas aeruginosa = assay: Antibacterial activity against Pseudomonas aeruginosa […] assessed as inhibition of bacterial growth incubated for 24 hrs by broth dilution method; type: functional

Compound | MIC (Staphylococcus aureus [1]) | MIC (Staphylococcus aureus [2]) | further results
CC(C)C(=O)c1c(O)cc(O)c(C(=O)C(C)C)c1O | 4 µg/mL (≈ 15 µM) | 4 µg/mL (≈ 15 µM) | –
CCCCCCCCC(=O)c1c(O)cc(O)c(C(=O)CCCCCCCC)c1O | 2 µg/mL (≈ 4.92 µM) | 4 µg/mL (≈ 9.84 µM) | –
CCCCCCCC(=O)c1c(O)cc(O)cc1O | 8 µg/mL (≈ 31.7 µM) | 8 µg/mL (≈ 31.7 µM) | –
CCCCC(=O)c1c(O)cc(O)c(C(=O)C(C)C)c1O | 2 µg/mL (≈ 7.13 µM) | 2 µg/mL (≈ 7.13 µM) | Selectivity Index (Staphylococcus aureus [3]): 4; MIC (Escherichia coli): > 64 µg/mL; MBC (Staphylococcus aureus [4]): 8 µg/mL (≈ 28.5 µM); MBC (Staphylococcus aureus [5]): 8 µg/mL (≈ 28.5 µM); MIC (Klebsiella pneumoniae): > 64 µg/mL; viability at 24 h [6]: 75%; Selectivity Index (Staphylococcus aureus [7]): 4; viability at 24 h [8]: 76%; MIC (Staphylococcus aureus [9]): 1 µg/mL (≈ 3.57 µM); MIC (Pseudomonas aeruginosa): > 64 µg/mL
COc1cc(OC)c(C(C)=O)c(OC)c1C(C)=O | > 64 µg/mL | > 64 µg/mL | –
C[C@H]1c2cccc(O)c2C(=O)C2=C(O)[C@]3(O)C(=O)C(C(N)=O)=C(O)[C@@H](N(C)C)[C@@H]3[C@@H](O)[C@@H]21 [DOXYCYCLINE ANHYDROUS] | – | – | MIC (Staphylococcus aureus [9]): 0.5 µg/mL (≈ 1.13 µM)
O=C(c1c(O)cc(O)c(C(=O)C2CC2)c1O)C1CC1 | 8 µg/mL (≈ 30.5 µM) | 8 µg/mL (≈ 30.5 µM) | –
CC(=O)c1c(O)cc(O)c(C(C)=O)c1O | 8 µg/mL (≈ 38.1 µM) | 4 µg/mL (≈ 19 µM) | Selectivity Index (Staphylococcus aureus [3]): 4; MIC (Escherichia coli): > 64 µg/mL; MBC (Staphylococcus aureus [4]): 32 µg/mL (≈ 152 µM); MBC (Staphylococcus aureus [5]): 64 µg/mL (≈ 304 µM); MIC (Klebsiella pneumoniae): > 64 µg/mL; Selectivity Index (Staphylococcus aureus [7]): 16; MIC (Staphylococcus aureus [9]): 8 µg/mL (≈ 38.1 µM); MIC (Pseudomonas aeruginosa): > 64 µg/mL
CCCCCCCCC(=O)c1c(O)cc(O)cc1O | 8 µg/mL (≈ 30 µM) | 8 µg/mL (≈ 30 µM) | –
CCCCCCCCCC(=O)c1c(O)cc(O)cc1O | 32 µg/mL (≈ 114 µM) | 32 µg/mL (≈ 114 µM) | –
CC(C)CCC(=O)c1c(O)cc(O)c(C(=O)CCC(C)C)c1O | 0.5 µg/mL (≈ 1.55 µM) | 0.5 µg/mL (≈ 1.55 µM) | Selectivity Index (Staphylococcus aureus [3]): 4; MIC (Escherichia coli): > 64 µg/mL; MBC (Staphylococcus aureus [4]): 2 µg/mL (≈ 6.2 µM); MBC (Staphylococcus aureus [5]): 2 µg/mL (≈ 6.2 µM); MIC (Klebsiella pneumoniae): > 64 µg/mL; Selectivity Index (Staphylococcus aureus [7]): 4; MIC (Staphylococcus aureus [9]): 0.5 µg/mL (≈ 1.55 µM); MIC (Pseudomonas aeruginosa): > 64 µg/mL
CC(=O)c1c(O)cc(O)cc1O [2,4,6-TRIHYDROXYACETOPHENONE] | > 64 µg/mL | > 64 µg/mL | –
CCCCCC(=O)c1c(O)cc(O)cc1O | 32 µg/mL (≈ 143 µM) | 32 µg/mL (≈ 143 µM) | –
CCCC(=O)c1c(O)cc(O)c(C(=O)CCC)c1O | 4 µg/mL (≈ 15 µM) | 4 µg/mL (≈ 15 µM) | –
CC1(C)S[C@@H]2[C@H](NC(=O)[C@H](N)c3ccc(O)cc3)C(=O)N2[C@H]1C(=O)O [AMOXICILLIN] | – | – | MIC (Staphylococcus aureus [9]): 128 µg/mL (≈ 350 µM)
CC(C)C(=O)c1c(O)cc(O)cc1O [PHLOROISOBUTYROPHENONE] | 32 µg/mL (≈ 163 µM) | 64 µg/mL (≈ 326 µM) | –
O=C(O)c1cn(C2CC2)c2cc(N3CCNCC3)c(F)cc2c1=O [CIPROFLOXACIN] | 0.25 µg/mL (≈ 0.754 µM) | 0.25 µg/mL (≈ 0.754 µM) | MIC (Staphylococcus aureus [9]): 0.25 µg/mL (≈ 0.754 µM)
O=Cc1c(O)cc(O)c(C=O)c1O | > 64 µg/mL | > 64 µg/mL | –
O=C(c1c(O)cc(O)cc1O)C1CCC1 | 32 µg/mL (≈ 154 µM) | 32 µg/mL (≈ 154 µM) | –
CC(C)CCC(=O)c1c(O)cc(O)cc1O | 32 µg/mL (≈ 143 µM) | 64 µg/mL (≈ 285 µM) | –
CCC(=O)c1c(O)cc(O)c(C(=O)CC)c1O | 4 µg/mL (≈ 16.8 µM) | 8 µg/mL (≈ 33.6 µM) | –
CC(C)(C)CC(=O)c1c(O)cc(O)cc1O | 64 µg/mL (≈ 285 µM) | > 64 µg/mL | –
CCC(C)C(=O)c1c(O)cc(O)cc1O (stereo not drawn) | 32 µg/mL (≈ 152 µM) | > 64 µg/mL | –
COc1cc(OC)c(C(C)=O)c(O)c1C(C)=O | > 64 µg/mL | > 64 µg/mL | –
